Laboratory results taken from PMC8129133, “Polymer-free corticosteroid dimer implants for controlled and sustained drug delivery” (Nature Communications, 2021).
Values after ≈ are worked out from the molar mass of the structure shown. Values joined by “and” are separate entries in the source; they are usually repeats but may differ in a detail not shown here. Identical values can stand only once.

Key:
[1] = In vitro half-life / degradation of solubilized Dex-TEG-Dex in FBS; assay type: in vitro ADME
Method: Dex-TEG-Dex was dissolved in acetone at 10 mg/ml and added to 100% FBS to obtain a final concentration of 10 µg/ml and incubated at 37 °C with constant agitation at 115 rpm (VWR). At experimental timepoints of t = 0, 0.5, 1, 2, 3, 4, 5, 6, and 24 h, sample was removed and protein was precipitated with acetonitrile. Samples were vortexed and centrifuged to separate extracted drug from the precipitated protein. The supernatant was then analyzed by HPLC as described above.

[2] = system: lipopolysaccharide (LPS)-induced model of uveitis in a rat eye; test: Rat uveitis model; assay type: in vivo, Brown Norway rats; details: for Retinal Thickness (µm): single eyes, Fig 7e
Method: Sample preparation. Dex-TEG-Dex was weighed on a stainless steel coupon and transferred to a heat press (Carver Laboratory Press). Once melted, a polytetrafluoroethylene (PTFE) template was placed on the melt and pressure was applied for 2 min. Samples were cooled to room temperature prior to removal from the PTFE mold, yielding implants with 23 G diameter × 1 mm length. Samples were loaded into appropriate-sized needles (23 G), packaged, and sterilized by ethylene oxide gas.
LPS stimulation and implantation. […] Animals were first sedated in an isoflurane gas chamber before being anaesthetized through an intraperitoneal injection of ketamine (100 mg/kg) and xylazine (10 mg/kg) solution. One day prior to LPS stimulation, eyes were prepared with topical anesthetic eye drops (Alcaine, 0.5%, Alcon) and pupils were dilated with application of one drop of 1% tropicamide (Alcon) on each cornea prior to anesthesia. Implants were then injected with a 23 G needle into the vitreous humor of rat eyes. Negative control animals received a sham injection, while the positive control group received a sham injection as well as Dex eye drops 4× daily (Maxidex 0.1%, Alcon). One day after test article administration, each rat received an intravitreal injection of 100 ng of LPS (LPS Escherichia coli 0111:B4, Sigma Aldrich) to induce inflammation. The inflammatory state of the eyes was monitored by slit-lamp microscopy (Phoenix Anterior Segment Slit Lamp), fundus microscopy (Phoenix Micron IV), and optical coherence tomography (Phoenix image-guided OCT) for 72 h post-LPS injection. Slit-lamp was used to image the anterior structures of the rat eye and to assess changes in vasculature, aqueous humor haze, pupil responsiveness, and presence of cellular infiltrates. Anterior segment OCT (ASOCT) was used to assess signs of inflammation in the anterior chamber through anterior chamber flare, pupillary fibrin occlusions, and presence of inflammatory cells. The ASOCT was used only for qualitative evaluation of the inflammatory state. Posterior segment OCT (PSOCT) was used to capture six (6) images around the optic disc (OD) of each eye and the images were used for retinal thickness, inflammatory cell count, and vitreal haze evaluation. Retinal thickness was measured using ImageJ (v.1.8.0) from four (4) OCT images close to the optic disk. Inflammatory cells were manually quantified from the same OCT images used for retinal thickness measurements.

[3] = Maximum soluble concentration in culture medium (HPLC); assay type: physicochemical; details: plasma or biological fluid, kinetic from ethanol stock, fibroblast growth medium, 1% ethanol, sterile filtered
Method: Human dermal fibroblasts were chosen for general cytotoxicity assessment as they are commonly employed in standard cytotoxicity testing outlined in ISO10993 guidelines. […] The resulting solution was sterile filtered (Pall) to remove any non-soluble components and the concentration of Dex-TEG-Dex was confirmed by HPLC (6.7 µg/ml). The […] control was regular culture medium with 1% ethanol, while the negative control was culture medium containing 5% DMSO. Following 24 h exposure to the different test groups, a WST-1 assay was performed. Briefly, WST-1 reagent (Roche) was mixed with growth medium at a 1:10 dilution, added to test groups, and incubated at 37 °C and 5% CO2 for 1 h. Supernatant was transferred to a new well and absorbance was measured at 450 nm. After 24 h exposure to test groups, samples were also visualized following Diff-Quik staining following the manufacturer’s recommended protocol (Siemens). Samples were imaged with a Leica DMIL microscope equipped with a Canon PowerShot S70 camera with ZoomBrowser Ex 5.0 software (Canon, version 5.0.0.142).

C[C@@H]1C[C@H]2[C@@H]3CCC4=CC(=O)C=C[C@]4(C)[C@@]3(F)[C@@H](O)C[C@]2(C)[C@@]1(O)C(=O)COC(=O)OCCOCCOCCOC(=O)OCC(=O)[C@@]1(O)[C@H](C)C[C@H]2[C@@H]3CCC4=CC(=O)C=C[C@]4(C)[C@@]3(F)[C@@H](O)C[C@@]21C [Dex-TEG-Dex]
t1/2 of solubilized dimer with protease inhibitor ([1]; FBS + Pefabloc 1 mg/ml): 17.5 ± 4.0 h
t1/2 of solubilized dimer ([1]; FBS, 37 °C): 1.6 ± 0.3 h
Dex-TEG-Dex ([1]; Fig 4f/4g, 100% FBS, 0 h): 8904.60 ng/mL and 12808.33 ng/mL and 10692.90 ng/mL
Dex-TEG-Dex ([1]; Fig 4f/4g, 100% FBS, 0.5 h): 7215.95 ng/mL and 9829.58 ng/mL and 8828.65 ng/mL
Dex-TEG-Dex ([1]; Fig 4f/4g, 100% FBS, 1 h): 5359.02 ng/mL and 7447.63 ng/mL and 6811.81 ng/mL
Dex-TEG-Dex ([1]; Fig 4f/4g, 100% FBS, 2 h): 2692.08 ng/mL and 4406.52 ng/mL and 3872.43 ng/mL
Dex-TEG-Dex ([1]; Fig 4f/4g, 100% FBS, 3 h): 1327.43 ng/mL and 2230.11 ng/mL and 1843.05 ng/mL
Dex-TEG-Dex ([1]; Fig 4f/4g, 100% FBS, 4 h): 658.17 ng/mL and 1181.11 ng/mL and 1053.60 ng/mL
Dex-TEG-Dex ([1]; Fig 4f, 100% FBS, 24 h): 0.00 ng/mL
Dex-TEG-Dex ([1]; Fig 4g, 100% FBS + Pefabloc, 0 h): 9696.84 ng/mL and 12099.70 ng/mL and 11672.92 ng/mL
Dex-TEG-Dex ([1]; Fig 4g, 100% FBS + Pefabloc, 0.5 h): 9639.71 ng/mL and 11685.46 ng/mL and 12342.53 ng/mL
Dex-TEG-Dex ([1]; Fig 4g, 100% FBS + Pefabloc, 1 h): 9646.33 ng/mL and 10767.80 ng/mL and 11272.62 ng/mL
Dex-TEG-Dex ([1]; Fig 4g, 100% FBS + Pefabloc, 2 h): 9053.36 ng/mL and 10983.11 ng/mL and 10167.52 ng/mL
Dex-TEG-Dex ([1]; Fig 4g, 100% FBS + Pefabloc, 3 h): 9138.02 ng/mL and 9847.00 ng/mL and 8269.83 ng/mL
Dex-TEG-Dex ([1]; Fig 4g, 100% FBS + Pefabloc, 4 h): 8469.46 ng/mL and 9930.96 ng/mL and 8280.63 ng/mL
Dex-TEG-Dex ([1]; Fig 4g, 100% FBS + Pefabloc, 5 h): 8230.46 ng/mL and 9376.67 ng/mL and 8546.80 ng/mL
Dex-TEG-Dex ([1]; Fig 4g, 100% FBS + Pefabloc, 6 h): 7196.79 ng/mL and 9318.49 ng/mL and 8262.17 ng/mL
Retinal Thickness (µm) ([2]; 0h): 298 µm and 279 µm and 272 µm and 275 µm and 314 µm and 300 µm and 293 µm and 294 µm
Retinal Thickness (µm) ([2]; 24h): 300 µm and 269 µm and 279 µm and 286 µm and 296 µm and 289 µm and 292 µm
Retinal Thickness (µm) ([2]; 48h): 279 µm and 296 µm and 265 µm and 264 µm and 275 µm and 261 µm and 294 µm and 266 µm
Retinal Thickness (µm) ([2]; 72h): 245 µm and 261 µm and 250 µm and 249 µm and 236 µm and 241 µm and 247 µm and 259 µm
Retinal Thickness (µm) ([2]; -24h): 244 µm and 248 µm and 257 µm and 251 µm and 238 µm and 240 µm
effect on LPS-induced inflammatory response ([2]; intravitreal 23 G implant, 24 h before LPS, cellular infiltrate and retinal thickness by OCT, 72 h): acutely suppress the LPS-induced inflammatory response
solubility [3]: 6.7 µg/mL (≈ 6.79 µM)
